Measurements published in US20070128217A1 (priority 2003, published 2007).

Tests used:
[1] = system: control sera (pooled serum of ten healthy LUMC hospital workers; commercial negative donor pooled serum from the Dutch bloodbank); assay type: binding, human; parameters: Binding of Control serum LUMC to linear peptides / Binding of Control serum Blood-bank to linear peptides / Binding of Control serum LUMC to looped peptides / Binding of Control Serum Blood-Bank to Looped peptides / Binding of Control serum LUMC to linear peptides of the protein M of SARS-CoV Urbani / Binding of Control serum Blood-bank to linear peptides of the protein M of SARS-CoV Urbani / Binding of Control serum LUMC to looped peptides of the protein M of SARS-CoV Urbani / Binding of Control Serum Blood-Bank to Looped peptides of the protein M of SARS-CoV Urbani: unit not given here
[2] = system: antibodies in sera from SARS patients (sera 1a, 1b, 2, 6, 37, 62, London, SARS-yellow, SARS-green); assay type: binding, human; parameters: Binding of serum 6 to linear peptides of protein X1 of SARS-CoV Urbani / Binding of serum 37 to linear peptides of protein X1 of SARS-CoV Urbani / Binding of serum 6 to looped/cyclic peptide (PEPSCAN-ELISA) / Binding of serum 37 to looped/cyclic peptide (PEPSCAN-ELISA) / Binding of serum 37 to looped/cyclic peptides of protein X1 of SARS-CoV Urbani / Binding of serum 6 to linear peptides of protein X2 / Binding of serum 37 to linear peptides of protein X2 / Binding of serum 37 to looped/cyclic peptides of protein X2 of SARS-CoV Urbani / Binding of serum 6 to linear peptides of protein M of SARS-CoV Urbani / Binding of serum 37 to linear peptides of protein M of SARS-CoV Urbani / Binding of serum 6 to looped/cyclic peptides of protein M of SARS-CoV Urbani / Binding of serum 37 to looped/cyclic peptides of protein M of SARS-CoV Urbani / Binding of serum 6 to linear peptides of protein X3 of SARS-CoV Urbani / Binding of serum 37 to linear peptides of protein X3 of SARS-CoV Urbani / Binding of serum 37 to looped/cyclic peptides of protein X3 of SARS-CoV Urbani / Binding of serum 6 to linear peptides of protein X4 of SARS-CoV Urbani / Binding of serum 37 to linear peptides of protein X4 of SARS-CoV Urbani / Binding of serum 37 to looped/cyclic peptides of protein X4 of SARS-CoV Urbani / Binding of serum 6 to linear peptides of protein X5 of SARS-CoV Urbani / Binding of serum 37 to linear peptides of protein X5 of SARS-CoV Urbani / Binding of serum 37 to looped/cyclic peptides of protein X5 of SARS-CoV Urbani / Binding of serum 6 to linear peptides of protein N of SARS-CoV Urbani / Binding of serum 37 to linear peptides of protein N of SARS-CoV Urbani / Binding of serum 6 to linear peptide (PEPSCAN-ELISA) / Binding of serum 1a to looped/cyclic peptides of protein N of SARS-CoV Urbani / Binding of serum 1b to looped/cyclic peptides of protein N of SARS-CoV Urbani / Binding of serum 2 to looped/cyclic peptides of protein N of SARS-CoV Urbani / Binding of serum 6 to looped/cyclic peptides of protein N of SARS-CoV Urbani / Binding of serum 37 to looped/cyclic peptides of protein N of SARS-CoV Urbani / Binding of serum 62 to looped/cyclic peptides of protein N of SARS-CoV Urbani / Binding of serum London to looped/cyclic peptides of protein N of SARS-CoV Urbani / Binding of serum SARS-green to looped/cyclic peptides of protein N of SARS-CoV Urbani: unit not given here
[3] = system: rabbit serum obtained by immunizing a rabbit with the SARS-CoV strain Frankfurt 1; assay type: binding; parameters: Binding of a rabbit serum to linear peptides / Binding of a rabbit serum to looped peptides / Rabbit serum linear peptides / Rabbit serum looped peptides / Binding of a rabbit serum to linear peptides of protein N of SARS-CoV Urbani (Rabbit serum linear peptides) / Binding of a rabbit serum to looped/cyclic peptides of protein N of SARS-CoV Urbani (Rabbit serum looped peptides): unit not given here

## VLKMLHSSSLTSLLK
[1]
  Binding of Control Serum Blood-Bank to Looped peptides: 0.5
  Binding of Control serum Blood-bank to linear peptides: 0.7
  Binding of Control serum LUMC to linear peptides: 0.4
  Binding of Control serum LUMC to looped peptides: 0.3
[2]
  Binding of serum 1a to linear peptides of protein X2: 0.6
  Binding of serum 1a to looped/cyclic peptides of protein X2 of SARS-CoV Urbani: 0.4
  Binding of serum 1b to linear peptides of protein X2: 0.5
  Binding of serum 1b to looped/cyclic peptides of protein X2 of SARS-CoV Urbani: 0.2
  Binding of serum 2 to linear peptides of protein X2: 0.5
  Binding of serum 2 to looped/cyclic peptides of protein X2 of SARS-CoV Urbani: 0.1
  Binding of serum 6 to linear peptides of protein X2: 0.5
  Binding of serum 6 to looped/cyclic peptides of protein X2 of SARS-CoV Urbani: 0.1
  Binding of serum 37 to linear peptides of protein X2: 0.5
  Binding of serum 37 to looped/cyclic peptides of protein X2 of SARS-CoV Urbani: 0.2
  Binding of serum 62 to linear peptides of protein X2: 0.6
  Binding of serum 62 to looped/cyclic peptides of protein X2 of SARS-CoV Urbani: 0.4
  Binding of serum London to linear peptides of protein X2: 0.4
  Binding of serum London to looped/cyclic peptides of protein X2 of SARS-CoV Urbani: 0.1
  Binding of serum SARS-green to linear peptides of protein X2: 0.5
  Binding of serum SARS-green to looped/cyclic peptides of protein X2 of SARS-CoV Urbani: 0.2
  Binding of serum SARS-yellow to linear peptides of protein X2: 0.5
  Binding of serum SARS-yellow to looped/cyclic peptides of protein X2 of SARS-CoV Urbani: 0.2
[3]
  Binding of a rabbit serum to linear peptides: 0.2
  Binding of a rabbit serum to looped peptides: 0.3

## VRYNTRGNTYSTAWL
[1]
  Binding of Control Serum Blood-Bank to Looped peptides: 0.3
  Binding of Control serum Blood-bank to linear peptides: 0.9
  Binding of Control serum LUMC to linear peptides: 0.5
  Binding of Control serum LUMC to looped peptides: 0.5
[2]
  Binding of serum 1a to linear peptides of protein X5 of SARS-CoV Urbani: 0.7
  Binding of serum 1a to looped/cyclic peptides of protein X5 of SARS-CoV Urbani: 0.5
  Binding of serum 1b to linear peptides of protein X5 of SARS-CoV Urbani: 0.4
  Binding of serum 1b to looped/cyclic peptides of protein X5 of SARS-CoV Urbani: 0.3
  Binding of serum 2 to linear peptides of protein X5 of SARS-CoV Urbani: 0.4
  Binding of serum 2 to looped/cyclic peptides of protein X5 of SARS-CoV Urbani: 0.4
  Binding of serum 6 to linear peptides of protein X5 of SARS-CoV Urbani: 0.7
  Binding of serum 6 to looped/cyclic peptides of protein X5 of SARS-CoV Urbani: 0.3
  Binding of serum 37 to linear peptides of protein X5 of SARS-CoV Urbani: 0.6
  Binding of serum 37 to looped/cyclic peptides of protein X5 of SARS-CoV Urbani: 0.6
  Binding of serum 62 to linear peptides of protein X5 of SARS-CoV Urbani: 0.7
  Binding of serum 62 to looped/cyclic peptides of protein X5 of SARS-CoV Urbani: 0.4
  Binding of serum London to linear peptides of protein X5 of SARS-CoV Urbani: 0.7
  Binding of serum London to looped/cyclic peptides of protein X5 of SARS-CoV Urbani: 0.2
  Binding of serum SARS-green to linear peptides of protein X5 of SARS-CoV Urbani: 0.4
  Binding of serum SARS-green to looped/cyclic peptides of protein X5 of SARS-CoV Urbani: 0.6
  Binding of serum SARS-yellow to linear peptides of protein X5 of SARS-CoV Urbani: 0.4
  Binding of serum SARS-yellow to looped/cyclic peptides of protein X5 of SARS-CoV Urbani: 0.6
[3]
  Rabbit serum linear peptides: 0.7
  Rabbit serum looped peptides: 1.2

## VSQIQLSLLKVTAFQ
[1]
  Binding of Control Serum Blood-Bank to Looped peptides: 0.6
  Binding of Control serum Blood-bank to linear peptides: 0.5
  Binding of Control serum LUMC to linear peptides: 0.8
  Binding of Control serum LUMC to looped peptides: 0.6
[2]
  Binding of serum 1a to linear peptides of protein X2: 0.5
  Binding of serum 1a to looped/cyclic peptides of protein X2 of SARS-CoV Urbani: 0.5
  Binding of serum 1b to linear peptides of protein X2: 0.4
  Binding of serum 1b to looped/cyclic peptides of protein X2 of SARS-CoV Urbani: 0.4
  Binding of serum 2 to linear peptides of protein X2: 0.4
  Binding of serum 2 to looped/cyclic peptides of protein X2 of SARS-CoV Urbani: 0.4
  Binding of serum 6 to linear peptides of protein X2: 0.5
  Binding of serum 6 to looped/cyclic peptides of protein X2 of SARS-CoV Urbani: 0.6
  Binding of serum 37 to linear peptides of protein X2: 0.6
  Binding of serum 37 to looped/cyclic peptides of protein X2 of SARS-CoV Urbani: 0.4
  Binding of serum 62 to linear peptides of protein X2: 0.3
  Binding of serum 62 to looped/cyclic peptides of protein X2 of SARS-CoV Urbani: 0.6
  Binding of serum London to linear peptides of protein X2: 0.3
  Binding of serum London to looped/cyclic peptides of protein X2 of SARS-CoV Urbani: 0.8
  Binding of serum SARS-green to linear peptides of protein X2: 0.1
  Binding of serum SARS-green to looped/cyclic peptides of protein X2 of SARS-CoV Urbani: 0.3
  Binding of serum SARS-yellow to linear peptides of protein X2: 0.4
  Binding of serum SARS-yellow to looped/cyclic peptides of protein X2 of SARS-CoV Urbani: 0.6
[3]
  Binding of a rabbit serum to linear peptides: 0.6
  Binding of a rabbit serum to looped peptides: 0.4

## VTAFQHQNSKKTTKL
[1]
  Binding of Control Serum Blood-Bank to Looped peptides: 0.5
  Binding of Control serum Blood-bank to linear peptides: 0.3
  Binding of Control serum LUMC to linear peptides: 0.5
  Binding of Control serum LUMC to looped peptides: 0.5
[2]
  Binding of serum 1a to linear peptides of protein X2: 0.4
  Binding of serum 1a to looped/cyclic peptides of protein X2 of SARS-CoV Urbani: 0.4
  Binding of serum 1b to linear peptides of protein X2: 0.4
  Binding of serum 1b to looped/cyclic peptides of protein X2 of SARS-CoV Urbani: 0.3
  Binding of serum 2 to linear peptides of protein X2: 0.2
  Binding of serum 2 to looped/cyclic peptides of protein X2 of SARS-CoV Urbani: 0.1
  Binding of serum 6 to linear peptides of protein X2: 0.3
  Binding of serum 6 to looped/cyclic peptides of protein X2 of SARS-CoV Urbani: 0.3
  Binding of serum 37 to linear peptides of protein X2: 0.5
  Binding of serum 37 to looped/cyclic peptides of protein X2 of SARS-CoV Urbani: 0.3
  Binding of serum 62 to linear peptides of protein X2: 0.3
  Binding of serum 62 to looped/cyclic peptides of protein X2 of SARS-CoV Urbani: 0.5
  Binding of serum London to linear peptides of protein X2: 0.1
  Binding of serum London to looped/cyclic peptides of protein X2 of SARS-CoV Urbani: 0.2
  Binding of serum SARS-green to linear peptides of protein X2: 0.1
  Binding of serum SARS-green to looped/cyclic peptides of protein X2 of SARS-CoV Urbani: 0.2
  Binding of serum SARS-yellow to linear peptides of protein X2: 0.7
  Binding of serum SARS-yellow to looped/cyclic peptides of protein X2 of SARS-CoV Urbani: 0.5
[3]
  Binding of a rabbit serum to linear peptides: 0.6
  Binding of a rabbit serum to looped peptides: 0.4

## VTLACFVLAAVYRIN
[1]
  Binding of Control Serum Blood-Bank to Looped peptides of the protein M of SARS-CoV Urbani: 0.8
  Binding of Control serum Blood-bank to linear peptides of the protein M of SARS-CoV Urbani: 0.5
  Binding of Control serum LUMC to linear peptides of the protein M of SARS-CoV Urbani: 0.5
  Binding of Control serum LUMC to looped peptides of the protein M of SARS-CoV Urbani: 0.7
[2]
  Binding of serum 1a to linear peptides of protein M of SARS-CoV Urbani: 0.7
  Binding of serum 1a to looped/cyclic peptides of protein M of SARS-CoV Urbani: 0.8
  Binding of serum 1b to linear peptides of protein M of SARS-CoV Urbani: 0.6
  Binding of serum 1b to looped/cyclic peptides of protein M of SARS-CoV Urbani: 0.6
  Binding of serum 2 to linear peptides of protein M of SARS-CoV Urbani: 0.5
  Binding of serum 2 to looped/cyclic peptides of protein M of SARS-CoV Urbani: 0.6
  Binding of serum 6 to linear peptides of protein M of SARS-CoV Urbani: 0.4
  Binding of serum 6 to looped/cyclic peptides of protein M of SARS-CoV Urbani: 0.8
  Binding of serum 37 to linear peptides of protein M of SARS-CoV Urbani: 0.4
  Binding of serum 37 to looped/cyclic peptides of protein M of SARS-CoV Urbani: 0.7
  Binding of serum 62 to linear peptides of protein M of SARS-CoV Urbani: 0.5
  Binding of serum 62 to looped/cyclic peptides of protein M of SARS-CoV Urbani: 0.7
  Binding of serum London to linear peptides of protein M of SARS-CoV Urbani: 0.3
  Binding of serum London to looped/cyclic peptides of protein M of SARS-CoV Urbani: 0.3
  Binding of serum SARS-green to linear peptides of protein M of SARS-CoV Urbani: 0.5
  Binding of serum SARS-green to looped/cyclic peptides of protein M of SARS-CoV Urbani: 0.2
  Binding of serum SARS-yellow to linear peptides of protein M of SARS-CoV Urbani: 0.1
  Binding of serum SARS-yellow to looped/cyclic peptides of protein M of SARS-CoV Urbani: 0.6
[3]
  Rabbit serum linear peptides: 0.2
  Rabbit serum looped peptides: 0.3
